Reference: patent US20110065706A1, “Therapeutic Agents 812” (AstraZeneca AB, priority 2009, published 2011)

These compounds were tested against T1, human GPR119 (Homo sapiens, UniProt Q8TDV5) (assay: Cyclic AMP (HTRF cAMP) assay for human GPR119, Method A). Conditions: HEK293S, 0.75 h; Method A; HEK 293s cells over-expressing human GPR119; percent effect at top concentration 30 μM relative to maximum (50 μM Oleoylethanolamide) and minimum (1% DMSO) controls.
T1 construct: expressed in transfected cells; host or cells: HEK 293s
T1 sequence (Q8TDV5 1-335): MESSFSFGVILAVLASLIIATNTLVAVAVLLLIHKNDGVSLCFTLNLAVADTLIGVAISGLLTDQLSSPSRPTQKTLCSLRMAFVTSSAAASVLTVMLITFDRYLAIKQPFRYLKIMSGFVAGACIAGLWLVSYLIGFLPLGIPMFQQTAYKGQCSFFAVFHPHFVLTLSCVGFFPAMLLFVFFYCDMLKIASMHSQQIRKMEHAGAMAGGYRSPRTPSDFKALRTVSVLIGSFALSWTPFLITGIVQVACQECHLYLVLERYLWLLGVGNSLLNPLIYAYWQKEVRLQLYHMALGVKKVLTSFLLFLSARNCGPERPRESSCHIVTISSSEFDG
Assay type: cell-based

activation at 30 µM [%]	Structure (SMILES)
171	C[C@@H]1CN(C(=O)OC2(C(F)(F)F)COC2)CCN1c1ncc(OCc2ccncc2C#N)cn1 [Example 111, (R)-3-(trifluoromcthyl) oxetan-3-yl 4-(5-((3-cyanopyridin-4-yl)mcthoxy)pyrimidin-2-yl)-3-mcthylpipcrazine-1-carboxylate]
100	C[C@@H]1CN(C(=O)OC(C)(C)C)CCN1c1ncc(OCc2ccc(C(=O)N(C)CCO)cc2)cn1 [Example 21, (R)-tert-butyl 4-(5-(4-((2-hydroxyethyl) (methyl)carba-moyl)benzyl-oxy)pyrimidin-2-yl)-3-methyl-piperazine-1-carboxylate]
69	CC(C)OC(=O)N1CCN(c2ncc(OCc3ccc(S(C)(=O)=O)cc3)cn2)[C@H](C)C1 [Example 57, (R)-isopropyl 3-methyl-4-(5-(4-(methylsulfonyl)benzyloxy)pyrimidin-2-yl)piperazine-1-carboxylate]
61	CC(C)(C)OC(=O)N1CCN(c2ncc(OCc3ccncn3)cn2)CC1 [Example 9, tert-butyl 4-(5-(pyrimidin-4-ylmethoxy)pyrimidin-2-yl)piperazine-1-carboxylate]
41	C[C@@H]1CN(C(=O)OC2(C)COC2)CCN1c1ncc(OCc2ccc(S(C)(=O)=O)cc2)cn1 [Example 80, (R)-3-methyloxetan-3-yl 3-methyl-4-(5-(4-(methylsulfonyl)benzyloxy)pyrimi-din-2-yl)piperazine-1-carboxylate]
30	C[C@@H]1CN(C(=O)OC2COC2)CCN1c1ncc(OCc2ccc(S(C)(=O)=O)cc2)cn1 [Example 76, (R)-oxetan-3-yl 3-methyl-4-(5-(4-(methylsulfonyl)benzyloxy)pyrimidin-2-yl)piperazine-1-carboxylate]
170	CC(C)(C)OC(=O)N1CCN(c2ncc(OCc3ccc(-n4cnnn4)cc3)cn2)CC1 [Example 7, Tert-butyl 4-(5-(4-(1H-tetrazol-1-yl)benzyloxy)pyrimidin-2-yl)piperazine-1-carboxylate]
94	CC(C)NC(=O)c1ccc(COc2cnc(N3CCN(C(=O)OC(C)(C)C)CC3)nc2)cc1 [Example 46, tert-butyl 4-(5-(4-(isopropylcarba-moyl)benzyl-oxy)pyrimidin-2-yl)piperazine-1-carboxylate]
188	C[C@@H]1CN(c2noc(C3(C)COC3)n2)CCN1c1ncc(OCc2ccncc2C#N)cn1 [Example 107, (R)-4-((2-(2-methyl-4-(5-(3-methyloxetan-3-yl)-1,2,4-oxadiazol-3-yl)piperazin-1-yl)pyrimidin-5-yloxy)methyl)nicotinonitrile]
65	CC(C)(C)OC(=O)N1CCN(c2ncc(OCc3ccc(OS(C)(=O)=O)cc3)cn2)CC1 [Example 17, tert-butyl 4-(5-(4-(methyl-sulfonyloxy)benzyloxy)pyrimidin-2-yl)piperazine-1-carboxylate]
32	CC(C)(C)OC(=O)N1CCN(c2ncc(OCc3ccc([S+]([O-])C(F)(F)F)cc3)cn2)CC1 (stereo not drawn) [Example 91, Tert-butyl 4-(5-(4-(trifluoromethylsulfinyl)benzyloxy)pyrimidin-2-yl)piperazine-1-carboxylate]
48	CN(CCO)C(=O)c1ccc(COc2cnc(N3CCN(C(=O)OC(C)(C)C)CC3)nc2)cc1 [Example 43, Tert-butyl 4-(5-(4-((2-hydroxyethyl)(methyl)carbamoyl)benzyloxy)pyrimidin-2-yl)piperazine-1-carboxylate]
36	CC(C)(C)OC(=O)N1C[C@@H]2CC[C@H]1CN2c1ncc(OCc2ccc(S(C)(=O)=O)cc2)cn1 [Example 29, (1S,4S)-tert-butyl 5-(5-(4-(methylsulfonyl)benzyloxy)pyrimidin-2-yl)-2,5-diazabicyclo [2.2.2]octane-2-carboxylate]
59	CC(=O)Nc1ccc(COc2cnc(N3CCN(C(=O)OC(C)(C)C)CC3)nc2)cn1 [Example 6, tert-butyl 4-(5-((6-acetamido-pyridin-3-yl)methoxy)pyrimidin-2-yl)piperazine-1-carboxylate]
143	CC1(OC(=O)N2CCN(c3ncc(OCc4ccncc4C#N)cn3)CC2)COC1 [Example 81, 3-methyloxetan-3-yl 4-(5-((3-cyanopyridin-4-yl)methoxy)pyrimi-din-2-yl)piperazine-1-carboxylate]
61	CC(C)(C)OC(=O)N1CCN(c2ncc(OCc3ccc(C(=O)NCCO)cc3)cn2)CC1 [Example 44, tert-butyl 4-(5-(4-(2-hydroxyethyl-carbamoyl)benz-yloxy)pyrimi-din-2-yl)piperazine-1-carboxylate]

activation at 30 µM [%]	Structure (SMILES)
78	CC(C)C(=O)Nc1ccc(COc2cnc(N3CCN(C(=O)OC(C)(C)C)CC3)nc2)cc1 [Example 14, tert-butyl 4-(5-(4-isobutyramido-benzyloxy)pyrimidin-2-yl)piperazine-1-carboxylate]
66	CCS(=O)(=O)c1ccc(COc2cnc(N3CCN(C(=O)OC(C)(C)C)CC3)nc2)cc1 [Example 83, Tert-butyl 4-(5-(4-(ethylsulfonyl)benzyloxy)pyrimidin-2-yl)piperazine-1-carboxylate]
167	CC(C)c1nc(N2CCN(c3ncc(OCc4ccncc4C#N)cn3)CC2)no1 [Example 85, 4-((2-(4-(5-Isopropyl-1,2,4-oxadiazol-3-yl)piperazin-1-yl)pyrimidin-5-yloxy)methyl)nicotinonitrile]
90	CC1(OC(=O)N2CCN(c3ncc(OCc4ccc(S(C)(=O)=O)cc4)cn3)CC2)CC1 [Example 60, 1-Methylcyclopropyl 4-(5-(4-(methylsulfonyl)benzyloxy)pyrimidin-2-yl)piperazine-1-carboxylate]
102	C[C@@H]1CN(C(=O)OC2CCOCC2)CCN1c1ncc(OCc2ccncc2C#N)cn1 [Example 82, (R)-Tetrahydro-2H-pyran-4-yl 4-(5-((3-cyanopyridin-4-yl)methoxy)pyrimidin-2-yl)-3-methylpiperazine-1-carboxylate]
26	CN(C)CCNC(=O)c1ccc(COc2cnc(N3CCN(C(=O)OC(C)(C)C)CC3)nc2)cc1 [Example 48, tert-butyl 4-(5-(4-(2-(dimethylamino)ethylcarba-moyl)benzyloxy)pyrimidin-2-yl)piperazine-1-carboxylate]
128	CC(C)(C)OC(=O)N1CCN(c2ncc(OCc3ccc(S(C)(=O)=O)cc3F)cn2)CC1 [Example 36, tert-butyl 4-(5-(2-fluoro-4-(methylsulf-onyl)benzyl-oxy)pyrimi-din-2-yl)piperazine-1-carboxylate]
41	Cc1cc(COc2cnc(N3CCN(C(=O)OC(C)(C)C)CC3)nc2)ccc1NC(=O)C(C)(C)C [Example 13, tert-butyl 4-(5-(3-methyl-4-pivalamido-benzyloxy)pyrimidin-2-yl)piperazine-1-carboxylate]
82	C[S+]([O-])c1ccc(COc2cnc(N3CCN(C(=O)OC(C)(C)C)CC3)nc2)cc1 (stereo not drawn) [Example 93, Tert-butyl 4-(5-(4-(methylsulfinyl)benzyloxy)pyrimidin-2-yl)piperazine-1-carboxylate]
54	Cc1cc(COc2cnc(N3CCN(C(=O)OC(C)(C)C)CC3)nc2)ccc1NC(=O)C(C)C [Example 12, tert-butyl 4-(5-(4-isobutyr-amido-3-methyl-benzyloxy)pyrimidin-2-yl)piperazine-1-carboxylate]
68	C[C@@H]1CN(C(=O)OC(C)(C)C)CCN1c1ncc(OCc2ccncc2)cn1 [Example 19, (R)-Tert-butyl 3-methyl-4-(5-(pyridin-4-ylmethoxy)pyrimidin-2-yl)piperazine-1-carboxylate]
48	CC(C)c1nc(N2CCN(c3ncc(OCc4ccc(S(C)(=O)=O)cc4)cn3)CC2)no1 [Example 87, 5-Isopropyl-3-(4-(5-(4-(methylsulfonyl)benzyloxy)pyrimidin-2-yl)piperazin-1-yl)-1,2,4-oxadiazole]
109	CC(C)(C)NC(=O)c1ccc(COc2cnc(N3CCN(C(=O)OC(C)(C)C)CC3)nc2)cc1 [Example 47, tert-butyl 4-(5-(4-(tert-butylcarbamoyl)benzyloxy)pyrimidin-2-yl)piperazine-1-carboxylate]
63	CC(C)OC(=O)N1CCN(c2ncc(OCc3ccc(S(C)(=O)=O)cc3)cn2)CC1 [Example 56, Isopropyl 4-(5-(4-(methylsulfonyl)benzyloxy)pyrimidin-2-yl)piperazine-1-carboxylate]
155	C[C@@H]1CN(C(=O)OC(C)(C)C)CCN1c1ncc(OCc2ccc(S(C)(=O)=O)cc2)cn1 [Example 18, (R)-Tert-butyl 3-methyl-4-(5-(4-(methylsulfonyl)benzyloxy)pyrimidin-2-yl)piperazine-1-carboxylate]

Same assay, conditions: Method A; HEK 293s cells over-expressing human GPR119; midpoint of dose response curve; selected examples

EC50 [nM]	Structure (SMILES)
202	C[C@@H]1CN(C(=O)OC(C)(C)C)CCN1c1ncc(OCc2ccc(C(=O)N(C)CCO)cc2)cn1 [Example 21, (R)-tert-butyl 4-(5-(4-((2-hydroxyethyl) (methyl)carba-moyl)benzyl-oxy)pyrimidin-2-yl)-3-methyl-piperazine-1-carboxylate]
32	CC(C)NC(=O)c1ccc(COc2cnc(N3CCN(C(=O)OC(C)(C)C)CC3)nc2)cc1 [Example 46, tert-butyl 4-(5-(4-(isopropylcarba-moyl)benzyl-oxy)pyrimidin-2-yl)piperazine-1-carboxylate]
20	CC(C)(C)OC(=O)N1CCN(c2ncc(OCc3ccc(OS(C)(=O)=O)cc3)cn2)CC1 [Example 17, tert-butyl 4-(5-(4-(methyl-sulfonyloxy)benzyloxy)pyrimidin-2-yl)piperazine-1-carboxylate]
123	CCS(=O)(=O)c1ccc(COc2cnc(N3CCN(C(=O)OC(C)(C)C)CC3)nc2)cc1 [Example 83, Tert-butyl 4-(5-(4-(ethylsulfonyl)benzyloxy)pyrimidin-2-yl)piperazine-1-carboxylate]
675	C[C@@H]1CN(C(=O)OC2CCOCC2)CCN1c1ncc(OCc2ccncc2C#N)cn1 [Example 82, (R)-Tetrahydro-2H-pyran-4-yl 4-(5-((3-cyanopyridin-4-yl)methoxy)pyrimidin-2-yl)-3-methylpiperazine-1-carboxylate]
19	CC(C)(C)OC(=O)N1CCN(c2ncc(OCc3ccc(S(C)(=O)=O)cc3F)cn2)CC1 [Example 36, tert-butyl 4-(5-(2-fluoro-4-(methylsulf-onyl)benzyl-oxy)pyrimi-din-2-yl)piperazine-1-carboxylate]

Same assay, conditions: human GPR119 cAMP assay; top concentration 30 μM

significant activity at a top concentration of 30 μM	Structure (SMILES)
did not show significant activity	N#Cc1cnccc1COc1cnc(N2CCN(C(=O)OC3CCOCC3)CC2)nc1 [tetrahydropyran-4-yl 4-[5-[3-cyano-4-pyridyl)methoxy]pyrimidin-2-yl]piperazine-1-carboxylate]
did not show significant activity	CC(=O)Nc1ncc(COc2cnc(N3CCN(C(=O)OC(C)(C)C)CC3)nc2)cn1 [tert-butyl 4-[5-[(2-acetamidopyrimidin-5-yl)methoxy]pyrimidin-2-yl]piperazine-1-carboxylate]
